Values quoted from earlier work as cited in patent US20200057081A1, “System and Method for Managing Animal Cancers by Disabling the Cancer Cells Ability to Reproduce” (priority 2018, published 2020).

Tests used:
[1] = test system: tumors transplanted to mice
Drp1/Fis1 interaction = Drp1/Fis1 interaction (Homo sapiens, UniProt O00429)
[2] = test system: cultured cancer cell lines; conditions: multiple cell lines
dynamin GTPase = biological target: T1, dynamin GTPase (Homo sapiens, UniProt O00429); conditions: in mammalian cells; read-out: IC50, inhibition of mitochondrial division / dynamin GTPase activity
T1 construct: host or cells: mammalian cells (not specified)

mitochondria = conditions: Bid-activated, Bax/Bak-dependent, in vitro

Chain of Drp1/Fis1 interaction (O00429 whole entry): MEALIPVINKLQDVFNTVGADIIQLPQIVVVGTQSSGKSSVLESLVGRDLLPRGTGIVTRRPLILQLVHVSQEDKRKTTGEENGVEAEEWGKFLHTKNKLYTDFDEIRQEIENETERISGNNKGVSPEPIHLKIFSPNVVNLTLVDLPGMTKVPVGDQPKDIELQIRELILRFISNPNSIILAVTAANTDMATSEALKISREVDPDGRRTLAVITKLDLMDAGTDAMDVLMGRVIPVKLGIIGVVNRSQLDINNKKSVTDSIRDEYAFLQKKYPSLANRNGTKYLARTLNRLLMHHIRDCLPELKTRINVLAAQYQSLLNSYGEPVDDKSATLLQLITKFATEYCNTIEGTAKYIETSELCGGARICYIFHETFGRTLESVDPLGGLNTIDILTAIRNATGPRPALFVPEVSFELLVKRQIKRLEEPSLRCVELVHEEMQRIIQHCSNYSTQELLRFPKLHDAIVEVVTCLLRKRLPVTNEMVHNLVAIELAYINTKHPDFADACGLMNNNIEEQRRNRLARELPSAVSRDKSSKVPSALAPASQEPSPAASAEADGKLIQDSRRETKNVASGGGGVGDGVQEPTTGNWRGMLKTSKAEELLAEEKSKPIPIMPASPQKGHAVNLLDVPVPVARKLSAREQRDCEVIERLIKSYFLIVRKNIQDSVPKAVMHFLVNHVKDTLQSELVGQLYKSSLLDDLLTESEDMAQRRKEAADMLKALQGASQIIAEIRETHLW
T1 sequence (O00429 whole entry): as above

Compound: O=C(O)C(=O)CBr [3-bromopyruvate]
- tumor growth [1]: slow down the growth

Compound: CN(C)c1ccc(C2Nc3ccc4ccccc4c3C3=C2C(=O)CC(C)(C)C3)cc1Br (stereo not shown) [compound 968]
- inhibition of cancer cell growth (cancer cells; cancer cells): highly specific for inhibiting cancer cell growth
- effect on normal cells (cancer cells; normal (nontransformed) cells): little effect

Compound: Cc1ncc(C[n+]2csc(CCO)c2C)c(=O)[nH]1 [oxythiamine]
- tumor growth [1]: slow down the growth

Compound: P110: polypeptide P110, DLLPRGT, inhibitor of Drp1
- selectivity for Drp1/Fis1 interaction over Drp1 interaction with other ligands (Drp1/Fis1 interaction): more selective for blocking Drp1/Fis1 interaction

Compound: CS(=O)(=O)c1ccc(C(=O)Nc2ccc(Cl)c(-c3ccccn3)c2)c(Cl)c1 [GDC-0449]
- anti-proliferative effect [2]: modest anti-proliferative effect

Compound: C=C1CC[C@H](O)C/C1=C/C=C1\CCC[C@]2(C)[C@@H]([C@H](C)CCCC(C)C)CC[C@@H]12 [VD3]
- anti-proliferative effect [2]: modest anti-proliferative effect

Compound: CC1=C2C[C@H]3[C@@H](CC=C4C[C@@H](O)CC[C@@]43C)[C@@H]2CC[C@]12O[C@@H]1C[C@H](C)CN[C@H]1[C@H]2C [Cyc]
- anti-proliferative effect [2]: modest anti-proliferative effect

Compound: COc1cc(-n2c(=S)[nH]c3ccccc3c2=O)c(Cl)cc1Cl [Mdivi 1]
- IC50 (dynamin GTPase): ~50 µM
- cytochrome c release from mitochondria (mitochondria): block Bid-activated Bax/Bak-dependent cytochrome c release
